Measurements from US9133207B2, “Tetrandrine derivatives with substituted 5-carbon, preparation method and use thereof” (Hangzhou Bensheng Pharmaceutical Co., Ltd., priority 2011, dated 2015).
≈ marks a conversion by molar mass, not a printed value. Each block holds one molecule with its values, some of them ahead of it.

What was measured:
[1] = tested on: Becap37 (human breast cancer cell); experiment: Solid tumor cell growth inhibition, MTT, 72 h (Example 7); type: cell-based; conditions: for IC50 / IC90: Homo sapiens, 72 h, MTT, Becap-37
Procedure, shortened: (§1)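 Viability (%) relative to compound-free controls (100%) comes from MTT measurement following 72 h drug exposure at 37 °C, 5% CO2. Seeding density: 4000 cells/well, 24 h before dosing.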

[2] = tested on: RKO (human colon adenocarcinoma cell); experiment: as above; type: cell-based; conditions: for IC50 / IC90: Homo sapiens, 72 h, MTT, RKO
Procedure, shortened: as §1

[3] = tested on: SK-OV-3 (ovarian cancer cell); experiment: as above; type: cell-based; conditions: Homo sapiens
Procedure, shortened: as §1

[4] = tested on: CNE (nasopharyngeal carcinoma cell); experiment: as above; type: cell-based; conditions: Homo sapiens
Procedure, shortened: as §1

[5] = tested on: Hela (human cervical cancer cell); experiment: as above; type: cell-based; conditions: for IC50 / IC90: Homo sapiens, 72 h, MTT, Hela
Procedure, shortened: as §1

[6] = tested on: U87 MG (malignant glioma cell); experiment: as above; type: cell-based; conditions: Homo sapiens, U-87 MG
Procedure, shortened: as §1

[7] = tested on: A549 (human lung cancer); experiment: as above; type: cell-based; conditions: Homo sapiens; 72 h, MTT, A549
Procedure, shortened: as §1

[8] = tested on: Huh7 (human liver cancer cell); experiment: as above; type: cell-based; conditions: Homo sapiens; 72 h, MTT, Huh-7
Procedure, shortened: as §1

[9] = tested on: MGC 803 (human gastric cancer cell); experiment: as above; type: cell-based; conditions: Homo sapiens
Procedure, shortened: as §1

[10] = tested on: Jurkat (acute lymphoblastic leukemia, ALL); experiment: Leukemia cell growth inhibition, MTT, 72 h (Example 5); type: cell-based, human; conditions: Homo sapiens, Jurkat; 72 h, MTT
Procedure, shortened: (§2)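 An MTT read-out of viable cell concentration follows 72 h incubation (37° C, 5% CO2) of 6000 cells/well in 10% FBS-supplemented 1640 medium with the 5-substituted derivatives at varying concentrations.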

[11] = tested on: NB4 (acute promyelocytic leukemia, AML); experiment: as above; type: cell-based, human; conditions: for IC50 / IC90: Homo sapiens, 72 h, MTT
Procedure, shortened: as §2

[12] = tested on: H9 (acute lymphoblastic leukemia, ALL); experiment: as above; type: cell-based, human; conditions: for IC50 / IC90: Homo sapiens, 72 h, MTT
Procedure, shortened: as §2

[13] = tested on: K562/adr (drug-resistant, chronic myeloid leukemia, CML); experiment: as above; type: cell-based, human; conditions: Homo sapiens, K562/Adr; 72 h, MTT
Procedure, shortened: as §2

[14] = tested on: Kasumi-1 (acute myeloid leukemia M2 type, AML-M2); experiment: as above; type: cell-based, human; conditions: Homo sapiens, Kasumi 1
Procedure, shortened: as §2

[15] = tested on: RPMI8226 (multiple myeloma); experiment: Multiple myeloma cell growth inhibition, MTT, 72 h (Example 6); type: cell-based, human; conditions: Homo sapiens, RPMI-8226; 72 h, MTT, RPMI8226
Procedure, shortened: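 Viability was read by MTT after 72 h of compound exposure at 37 °C, 5% CO2. Each well held 6000 RPMI8226 cells in 1640 medium containing 10% fetal bovine serum, with derivatives added at various concentrations.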

[16] = tested on: MG63 (osteosarcoma); experiment: Solid tumor cell growth inhibition, MTT, 72 h (Example 7); type: cell-based, human; conditions: for IC50 / IC90: Homo sapiens, 72 h, MTT, MG-63
Procedure, shortened: as §1

[17] = tested on: PANC-1 (pancreatic cancer); experiment: as above; type: cell-based, human; conditions: Homo sapiens; 72 h, MTT, PANC-1
Procedure, shortened: as §1

[18] = tested on: PC-3 (prostate cancer); experiment: as above; type: cell-based, human; conditions: Homo sapiens; 72 h, MTT, PC-3
Procedure, shortened: as §1

[19] = tested on: CaES-17 (esophageal cancer cell); experiment: as above; type: cell-based, human; conditions: for IC50 / IC90: Homo sapiens, CaEs17, 72 h, MTT, CAES-17
Procedure, shortened: as §1

[20] = tested on: Hep-2 (laryngeal carcinoma); experiment: as above; type: cell-based, human; conditions: for IC50 / IC90: Homo sapiens, 72 h, MTT, Hep 2
Procedure, shortened: as §1

IC50 [1]: 0.52 µg/mL (≈ 0.673 µM)
IC90 [1]: 2.15 µg/mL (≈ 2.78 µM)
IC50 [2]: 0.17 µg/mL (≈ 0.22 µM)
IC90 [2]: 0.6 µg/mL (≈ 0.776 µM)
IC50 [3]: 1.37 µg/mL (≈ 1.77 µM)
IC90 [3]: 3.89 µg/mL (≈ 5.03 µM)
IC50 [4]: 1.03 µg/mL (≈ 1.33 µM)
IC90 [4]: 2.49 µg/mL (≈ 3.22 µM)
IC50 [5]: 0.45 µg/mL (≈ 0.582 µM)
IC90 [5]: 2.29 µg/mL (≈ 2.96 µM)
IC50 [6]: 0.55 µg/mL (≈ 0.712 µM)
IC90 [6]: 1.78 µg/mL (≈ 2.3 µM)
IC50 [7]: 1.35 µg/mL (≈ 1.75 µM)
IC90 [7]: 4.79 µg/mL (≈ 6.2 µM)
IC50 [8]: 1.09 µg/mL (≈ 1.41 µM)
IC90 [8]: 4.97 µg/mL (≈ 6.43 µM)
IC50 [9]: 1.5 µg/mL (≈ 1.94 µM)
IC90 [9]: 3.62 µg/mL (≈ 4.68 µM)
IC50 [10]: 2.34 µg/mL (≈ 3.03 µM)
IC90 [10]: 5.6 µg/mL (≈ 7.25 µM)
IC50 [11]: 0.2 µg/mL (≈ 0.259 µM)
IC90 [11]: 1.41 µg/mL (≈ 1.82 µM)
IC50 [12]: 0.25 µg/mL (≈ 0.323 µM)
IC90 [12]: 1.25 µg/mL (≈ 1.62 µM)
IC50 [13]: 0.83 µg/mL (≈ 1.07 µM)
IC90 [13]: 2.55 µg/mL (≈ 3.3 µM)
IC50 [14]: 1.29 µg/mL (≈ 1.67 µM)
IC90 [14]: 4.77 µg/mL (≈ 6.17 µM)
IC50 [15]: 0.25 µg/mL (≈ 0.323 µM)
IC90 [15]: 1.17 µg/mL (≈ 1.51 µM)
IC50 [16]: 0.07 µg/mL (≈ 0.0906 µM)
IC90 [16]: 1.11 µg/mL (≈ 1.44 µM)
IC50 [17]: 1.34 µg/mL (≈ 1.73 µM)
IC90 [17]: 4.04 µg/mL (≈ 5.23 µM)
IC50 [18]: 2.05 µg/mL (≈ 2.65 µM)
IC90 [18]: 4.71 µg/mL (≈ 6.09 µM)
IC50 [19]: 0.6 µg/mL (≈ 0.776 µM)
IC90 [19]: 4.9 µg/mL (≈ 6.34 µM)
IC50 [20]: 0.58 µg/mL (≈ 0.75 µM)
IC90 [20]: 3.58 µg/mL (≈ 4.63 µM)
SMILES: COc1ccc2cc1Oc1ccc(cc1)C[C@H]1c3cc(c(OC)cc3CCN1C)Oc1c(OC)c(OC)c(COCCOc3ccccc3)c3c1[C@H](C2)N(C)CC3 [BS-TE-402]
anti-Becap37 activity increase over tetrandrine ([1]; compared with tetrandrine): 13 fold
anti-RKO activity increase over tetrandrine ([2]; compared with tetrandrine): 16 fold
anti-Hela activity increase over tetrandrine ([5]; compared with tetrandrine): 9 fold
anti-NB4 activity increase over tetrandrine ([11]; compared with tetrandrine): ~8 fold
anti-H9 activity increase over tetrandrine ([12]; compared with tetrandrine): ~12 fold
anti-MG63 activity increase over tetrandrine ([16]; compared with tetrandrine): 27 fold
anti-CaES-17 activity increase over tetrandrine ([19]; compared with tetrandrine): 14 fold
anti-Hep-2 activity increase over tetrandrine ([20]; compared with tetrandrine): 7 fold

IC50 [1]: 1.9 µg/mL (≈ 2.55 µM)
IC90 [1]: 4.9 µg/mL (≈ 6.59 µM)
IC50 [2]: 0.26 µg/mL (≈ 0.35 µM)
IC90 [2]: 0.6 µg/mL (≈ 0.807 µM)
IC50 [3]: 8 µg/mL (≈ 10.8 µM)
IC90 [3]: > 16 µg/mL
IC50 [4]: 1.32 µg/mL (≈ 1.77 µM)
IC90 [4]: 3.33 µg/mL (≈ 4.48 µM)
IC50 [5]: 1.49 µg/mL (≈ 2 µM)
IC90 [5]: 3.45 µg/mL (≈ 4.64 µM)
IC50 [6]: 1.09 µg/mL (≈ 1.47 µM)
IC90 [6]: 2.55 µg/mL (≈ 3.43 µM)
IC50 [7]: 5.5 µg/mL (≈ 7.39 µM)
IC90 [7]: 15.5 µg/mL (≈ 20.8 µM)
IC50 [8]: 1.13 µg/mL (≈ 1.52 µM)
IC90 [8]: 1.66 µg/mL (≈ 2.23 µM)
IC50 [9]: 2.15 µg/mL (≈ 2.89 µM)
IC90 [9]: 9.02 µg/mL (≈ 12.1 µM)
IC50 [10]: 1 µg/mL (≈ 1.34 µM)
IC90 [10]: 8.5 µg/mL (≈ 11.4 µM)
IC50 [11]: 0.7 µg/mL (≈ 0.941 µM)
IC90 [11]: 2.6 µg/mL (≈ 3.5 µM)
IC50 [12]: 1.23 µg/mL (≈ 1.65 µM)
IC90 [12]: 2.5 µg/mL (≈ 3.36 µM)
IC50 [13]: 0.79 µg/mL (≈ 1.06 µM)
IC90 [13]: 3.59 µg/mL (≈ 4.83 µM)
IC50 [14]: 0.75 µg/mL (≈ 1.01 µM)
IC90 [14]: 3.58 µg/mL (≈ 4.81 µM)
IC50 [15]: 0.26 µg/mL (≈ 0.35 µM)
IC90 [15]: 1.35 µg/mL (≈ 1.81 µM)
IC50 [16]: 1.26 µg/mL (≈ 1.69 µM)
IC90 [16]: 3.07 µg/mL (≈ 4.13 µM)
IC50 [17]: 2.29 µg/mL (≈ 3.08 µM)
IC90 [17]: 8.92 µg/mL (≈ 12 µM)
IC50 [18]: 2.41 µg/mL (≈ 3.24 µM)
IC90 [18]: 5.56 µg/mL (≈ 7.47 µM)
IC50 [19]: 2.76 µg/mL (≈ 3.71 µM)
IC90 [19]: 11.8 µg/mL (≈ 15.8 µM)
IC50 [20]: 2.15 µg/mL (≈ 2.89 µM)
IC90 [20]: 5.69 µg/mL (≈ 7.65 µM)
SMILES: COc1ccc2cc1Oc1ccc(cc1)C[C@H]1c3cc(c(OC)cc3CCN1C)Oc1c(OC)c(OC)c(COCc3cccnc3)c3c1[C@H](C2)N(C)CC3 [BS-TE-411]

IC50 [1]: 1.1 µg/mL (≈ 1.47 µM)
IC90 [1]: 4.5 µg/mL (≈ 6.01 µM)
IC50 [2]: 0.69 µg/mL (≈ 0.921 µM)
IC90 [2]: 1.75 µg/mL (≈ 2.34 µM)
IC50 [3]: 2 µg/mL (≈ 2.67 µM)
IC90 [3]: > 16 µg/mL
IC50 [4]: 1.6 µg/mL (≈ 2.14 µM)
IC90 [4]: 3.7 µg/mL (≈ 4.94 µM)
IC50 [5]: 1.69 µg/mL (≈ 2.26 µM)
IC90 [5]: 4.1 µg/mL (≈ 5.47 µM)
IC50 [6]: 0.3 µg/mL (≈ 0.401 µM)
IC90 [6]: 1.16 µg/mL (≈ 1.55 µM)
IC50 [7]: 3.2 µg/mL (≈ 4.27 µM)
IC90 [7]: 16 µg/mL (≈ 21.4 µM)
IC50 [8]: 1.31 µg/mL (≈ 1.75 µM)
IC90 [8]: 2.46 µg/mL (≈ 3.28 µM)
IC50 [9]: 1.38 µg/mL (≈ 1.84 µM)
IC90 [9]: 6.55 µg/mL (≈ 8.75 µM)
IC50 [10]: 0.8 µg/mL (≈ 1.07 µM)
IC90 [10]: 4.05 µg/mL (≈ 5.41 µM)
IC50 [11]: 0.6 µg/mL (≈ 0.801 µM)
IC90 [11]: 1.6 µg/mL (≈ 2.14 µM)
IC50 [12]: 1.11 µg/mL (≈ 1.48 µM)
IC90 [12]: 2.32 µg/mL (≈ 3.1 µM)
IC50 [13]: 0.55 µg/mL (≈ 0.734 µM)
IC90 [13]: 2.15 µg/mL (≈ 2.87 µM)
IC50 [14]: 0.75 µg/mL (≈ 1 µM)
IC90 [14]: 3.1 µg/mL (≈ 4.14 µM)
IC50 [15]: 0.006 µg/mL (≈ 0.00801 µM)
IC90 [15]: 0.45 µg/mL (≈ 0.601 µM)
IC50 [16]: 0.9 µg/mL (≈ 1.2 µM)
IC90 [16]: 1.9 µg/mL (≈ 2.54 µM)
IC50 [17]: 1.92 µg/mL (≈ 2.56 µM)
IC90 [17]: 6.84 µg/mL (≈ 9.13 µM)
IC50 [18]: 1.79 µg/mL (≈ 2.39 µM)
IC90 [18]: 2.4 µg/mL (≈ 3.2 µM)
IC50 [19]: 2.21 µg/mL (≈ 2.95 µM)
IC90 [19]: 12.4 µg/mL (≈ 16.5 µM)
IC50 [20]: 1.86 µg/mL (≈ 2.48 µM)
IC90 [20]: 7.19 µg/mL (≈ 9.6 µM)
SMILES: CCN1CCN(Cc2c3c4c(c(OC)c2OC)Oc2cc5c(cc2OC)CCN(C)[C@H]5Cc2ccc(cc2)Oc2cc(ccc2OC)C[C@@H]4N(C)CC3)CC1 [BS-TE-342]
